Data as given in publication PMC6889490, “General structural features that regulate integrin affinity revealed by atypical αVβ8” (Nature Communications, 2019).

Tested on: αVβ8 headpiece
Test: Hydrogen-deuterium exchange MS, αVβ8 headpiece
Conditions: 2.20 µM αVβ8, 6.67 µM TGF-β1 ligand peptide; from KD
Protocol: Two microliters of αVβ6 and αVβ8 stock solutions (23 and 33 µM, respectively), either alone or mixed with 100 µM TGF-β1 ligand peptide, were diluted 15-fold (to 1.53 and 2.20 µM, αVβ6 and αVβ8, respectively, and 6.67 µM TGF-β1 ligand peptide) with labeling buffer (Supplementary Table 1) at 21 °C to initiate deuterium exchange. […] At time points from 10 s to 240 m, an aliquot was removed and an equal volume of quench buffer (Supplementary Table 1) was added to adjust the pH to 2.5. Each sample (46 pmol αVβ6 or 66 pmol αVβ8) was immediately subjected to liquid chromatography-mass spectrometry analysis as described in the next paragraphs and in our PRIDE submission (PXD014348). For binding experiments, protein and ligand were allowed to equilibrate for 20 min at 21 °C before deuterium labeling.
Deuterated and control samples were digested in solution with pepsin (10 mg/ml, Sigma P6887; Lot#SLBL1721V) for 5 min on ice, and then injected into an M-class Acquity UPLC with HDX technology (Waters)[32]. […]
Peptides were identified using PLGS 3.0.1 (Waters, 720001408EN) using six replicates of undeuterated αVβ6 and six replicates of undeuterated αVβ8. […] The relative amount of deuterium in each peptide was determined by subtracting the centroid mass of the undeuterated form of each peptide from the deuteratered form, at each time point, for each condition. […]

## G^213RRGDLATIHG^223 [TGF-β1 ligand peptide]
  predicted binding to integrin: 99.6%
